Series [1] in a line: Pharmacokinetic evaluation in ICR mice (intravenous and gavage). In kind it is in vivo. As to the method:
The bioavailability and pharmacokinetic behavior of the compounds were evaluated in mice. 6 male ICR mice with similar body weights were selected, among which 3 mice were administered a single gavage dose of 10 mg/kg, and the other 3 mice were intravenously administered a single dose of 5 mg/kg. Blood samples were collected at 5 minutes (intravenous administration), 15 minutes, 30 minutes, 1 hour, 2 hours, 4 hours, and 7 hours after administration. The plasma samples were analyzed for concentration by LCMS/MS, and the pharmacokinetic parameters of the compounds were analyzed using the PKSolver free tool and non-compartmental analysis (NCA) software.
Experimental animals: Each compound test group included 6 healthy male ICR mice, weighing 18-25 g, purchased from Charles River, which were randomly divided into 2 groups with 3 mice each.
Preparation of formulations: A certain amount of the compound was weighed and added to 2% DMSO + 15% Solutol + 83% physiological saline to form a clear solution.
Dosage: ICR mice were fasted overnight and administered the compound at a dose of 10 mg/kg via gavage or 5 mg/kg via intravenous injection. The dosing volumes for gavage and intravenous administration were 10 mL/kg and 5 mL/kg, respectively. Uniform feeding was conducted 2 hours after administration.
Sample collection: Approximately 30 µL of blood was collected from the great saphenous vein at 5 minutes (intravenous administration), 15 minutes, 30 minutes, 1 hour, 2 hours, 4 hours, and 7 hours after administration. The blood was placed into commercially available tubes containing K2-EDTA. The blood samples were then centrifuged at 4°C and 4600 rpm for 5 minutes to obtain plasma samples. All plasma samples were rapidly frozen on dry ice and maintained at -70°C until LCMS/MS analysis was performed.
Sample preparation: 10 µL of plasma sample was aspirated and precipitated with a methanol solution containing 50 nmol/L of α-naphthoflavone (internal standard). The mixture was thoroughly mixed and centrifuged at 4°C and 14000 rpm for 5 minutes. Then, 75 µL of the supernatant was mixed with 75 µL of methanol for LCMS/MS analysis.

The nature of series [2]: Tissue distribution evaluation in ICR mice. The format is in vivo. As to conditions: oral gavage 5 mg/kg, 1 hour after administration. As to the method: Experimental protocol: The tissue distribution characteristics of the compounds were evaluated in mice. 2 male ICR mice with similar body weights were selected, and the compound was administered via oral gavage at a dose of 5 mg/kg. The animals were sacrificed at 1 hour, and blood, liver, and heart were collected. After sample processing, the concentration of the compounds in each matrix was analyzed by LCMS/MS, and the average values of each group were calculated to evaluate the tissue/plasma ratio of the compounds.
Experimental animals: 2 healthy male ICR mice were purchased from Charles River.
Preparation of formulations: A certain amount of the compound was weighed and added to 2% DMSO + 15% Solutol + 83% distilled water to form a clear solution.
Dosage: ICR mice were fasted overnight and administered the compound via oral gavage at a dose of 5 mg/kg. The volume of oral gavage administration was 10 mL/kg. Uniform feeding was conducted 2 hours after administration.
Sample collection: Animals were sacrificed 1 hour after administration, and blood, liver, and heart tissues were collected. The blood was placed into commercially available tubes containing K2-EDTA. The blood samples were then centrifuged at 4°C and 4600 rpm for 5 minutes to obtain plasma samples. All plasma and tissue samples were rapidly frozen on dry ice and maintained at -70°C until LCMS/MS analysis was performed.
Sample preparation: 50 µL of the plasma sample was aspirated, precipitated with methanol, thoroughly mixed, and centrifuged at 4°C and 14000 rpm for 5 minutes. Then, 75 µL of the supernatant was mixed with 75 µL of methanol for LCMS/MS analysis. Tissue samples were homogenized using methanol. After homogenization, the mixture was centrifuged at 14,000 rpm for 5 minutes at 4°C. Subsequently, 75 µL of the supernatant was mixed with 75 µL of methanol for LCMS/MS analysis.

The target of a further series is T1, human FFAR1 (GPR40) (Homo sapiens, UniProt O14842).
T1 construct: Flag; expressed in transfected cells; host or cells: HEK293T
The series is described as follows: NFAT-RE-based reporter gene activity assay (Dual-Glo luciferase) for GPR40 agonistic activity in co-transfected HEK293T cells. As to conditions: 4-hour treatment. The format is cell-based. The method in brief: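 Agonism read as NFAT-RE-driven firefly luciferase over Renilla control (Dual-Glo) after 4 h compound exposure, top concentration 1 µM, 10 half-log steps.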
(In general: In a reporter assay the amount or activity of a reporter protein is the signal.)

Where [3] appears, read: Intravenous Administration (5 mg/kg).
Setting [4] is: mouse, plasma, po, Gavage Administration (10 mg/kg).

Results on 1 molecule are retold here after patent EP4682145A1, “BENZOHETEROCYCLIC COMPOUND, AND PREPARATION METHOD THEREFOR AND USE THEREOF” (Cascade Pharmaceuticals, Inc., priority 2023, dated 2024).

pEC50: −log10 of the molar value.

T1 sequence (O14842 whole entry): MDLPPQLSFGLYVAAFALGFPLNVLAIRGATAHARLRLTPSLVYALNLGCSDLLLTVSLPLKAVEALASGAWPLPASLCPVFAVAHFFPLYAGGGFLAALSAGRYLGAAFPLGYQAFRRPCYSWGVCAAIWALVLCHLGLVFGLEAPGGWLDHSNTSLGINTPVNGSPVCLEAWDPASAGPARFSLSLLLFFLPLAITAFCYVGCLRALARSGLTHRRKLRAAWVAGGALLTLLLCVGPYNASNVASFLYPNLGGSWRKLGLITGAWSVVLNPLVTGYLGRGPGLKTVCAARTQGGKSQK

As a reminder, the half-life is the time needed for the level to fall by half in the phase considered. What is called Cmax is the highest concentration seen after dosing. Broadly, the Tmax is the time at which the peak concentration occurs. A word on the bioavailability: it is dose-corrected exposure relative to a reference, in per cent. Higher therefore signals much systemic uptake. One may read the pEC50 as the negative decadic logarithm of the EC50, by convention in mol/L. A lower pEC50 goes with a high EC50. For `COc1ccc(F)c(N2CCC(c3oc4cc(C(CC(=O)O)C5CC5)ccc4c3-c3ccc(C(C)(C)C)cc3)CC2)c1` (stereo not shown) [Compound 168], in series [1] (setting [3]), the “CL_obs” value amounted to 0.126 L/h/kg and the “Vss_obs” value is 0.494 L/kg. In addition, in series [1] (mouse, plasma, Intravenous Administration (5 mg/kg)), the half-life is 3.9 h. Moreover, in series [1] (setting [4]), the peak level (Cmax) was 3.47 µg/mL and the Tmax was determined as 3 h. In addition, in series [1] (mouse, plasma, po, Gavage Administration (10 mg/kg), read-out: AUC0-7 h), the AUC(0-t) at 7 h is 15.4 µg·h/mL. In addition, in series [1] (mouse, plasma, po, gavage 10 mg/kg versus intravenous 5 mg/kg), the bioavailability is 24%. Moreover, in series [2], the “Plasma Concentration (ng/mL) or Tissue Concentration (ng/g): Blood” value is 936 ng/mL, the “Plasma Concentration (ng/mL) or Tissue Concentration (ng/g): Heart” value is given as 485 ng/g, the “Plasma Concentration (ng/mL) or Tissue Concentration (ng/g): Liver” value is listed as 1923 ng/g and the “Plasma Concentration (ng/mL) or Tissue Concentration (ng/g): Plasma” value was 1550 ng/mL. Also, the pEC50 at human FFAR1 (GPR40) was 6.30 to 7.00. In addition, at human FFAR1 (GPR40) (class symbols), the “Efficacy (%)” value was “††† (Efficacy (%) > 150)”.
